Among the data in patent publication US9580390B2, “Indazole compounds as kinase inhibitors and method of treating cancer with same” (University Health Network, priority 2011, dated 2017) are GI50 and IC50 values, retold here.

What is called GI50 is the concentration giving 50% growth inhibition. One may read the IC50 as the midpoint of a concentration-inhibition curve.

Experiment [1] deals with colon cancer cells (HCT116). The experiment is described as follows: Cancer cell line growth inhibition (SRB assay). The class given is cell-based. As to conditions: Homo sapiens, HCT-116; read-out: Cancer Cell Line GI50 Range HCT116.
The target of experiment [2] is T1, human PLK4 (Homo sapiens, UniProt O00444).
T1 construct: amino terminal GST fusion of residues 1-391 of human PLK4; made in house; host or cells: E. coli
T1 sequence (O00444 1-391): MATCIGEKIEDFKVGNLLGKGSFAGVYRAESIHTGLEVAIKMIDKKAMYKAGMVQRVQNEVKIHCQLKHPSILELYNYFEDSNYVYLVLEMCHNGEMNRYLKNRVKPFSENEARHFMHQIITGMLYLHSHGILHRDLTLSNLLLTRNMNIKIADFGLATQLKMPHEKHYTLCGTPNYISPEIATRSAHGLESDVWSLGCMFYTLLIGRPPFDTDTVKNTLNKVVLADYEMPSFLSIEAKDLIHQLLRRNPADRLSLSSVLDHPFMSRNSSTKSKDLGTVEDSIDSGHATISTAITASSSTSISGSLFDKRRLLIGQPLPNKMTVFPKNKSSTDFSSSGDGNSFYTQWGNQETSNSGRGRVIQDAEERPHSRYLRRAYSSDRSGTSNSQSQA
Put plainly: PLK4 inhibition assay (indirect ELISA). The class given is biochemical. As to conditions: 15 μM ATP. In outline:
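Dephosphorylated GST-PLK4 (residues 1-391, E. coli; 4 nM) was preincubated 15 min with compound, then reacted 30 min with 15 μM ATP in HEPES pH 7.4, MgCl2, Brij 35 on MBP-coated plates. Phospho-MBP was detected by antibody/HRP ELISA at 450 nm; IC50 from 10-point titration by 4-parameter logistic fit, or single 10 μM % inhibition.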
Background: In an ELISA, binding on a coated surface is turned into a signal by an enzyme label.

Experiment [3] relates to Breast cancer cells. Put plainly: Cancer cell line growth inhibition (SRB assay). It is filed as cell-based. The settings on record: Homo sapiens; MDA-MB-468; read-out: Cancer Cell Line GI50 Range MDA-MB-468. For orientation: Sulforhodamine B stains cellular protein and so reports cell mass.
Experiment [4] addresses T2, human TTK (Homo sapiens, UniProt P33981).
T2 construct: amino terminal GST fusion of full length human TTK; purchased Invitrogen
T2 sequence (P33981 1-857): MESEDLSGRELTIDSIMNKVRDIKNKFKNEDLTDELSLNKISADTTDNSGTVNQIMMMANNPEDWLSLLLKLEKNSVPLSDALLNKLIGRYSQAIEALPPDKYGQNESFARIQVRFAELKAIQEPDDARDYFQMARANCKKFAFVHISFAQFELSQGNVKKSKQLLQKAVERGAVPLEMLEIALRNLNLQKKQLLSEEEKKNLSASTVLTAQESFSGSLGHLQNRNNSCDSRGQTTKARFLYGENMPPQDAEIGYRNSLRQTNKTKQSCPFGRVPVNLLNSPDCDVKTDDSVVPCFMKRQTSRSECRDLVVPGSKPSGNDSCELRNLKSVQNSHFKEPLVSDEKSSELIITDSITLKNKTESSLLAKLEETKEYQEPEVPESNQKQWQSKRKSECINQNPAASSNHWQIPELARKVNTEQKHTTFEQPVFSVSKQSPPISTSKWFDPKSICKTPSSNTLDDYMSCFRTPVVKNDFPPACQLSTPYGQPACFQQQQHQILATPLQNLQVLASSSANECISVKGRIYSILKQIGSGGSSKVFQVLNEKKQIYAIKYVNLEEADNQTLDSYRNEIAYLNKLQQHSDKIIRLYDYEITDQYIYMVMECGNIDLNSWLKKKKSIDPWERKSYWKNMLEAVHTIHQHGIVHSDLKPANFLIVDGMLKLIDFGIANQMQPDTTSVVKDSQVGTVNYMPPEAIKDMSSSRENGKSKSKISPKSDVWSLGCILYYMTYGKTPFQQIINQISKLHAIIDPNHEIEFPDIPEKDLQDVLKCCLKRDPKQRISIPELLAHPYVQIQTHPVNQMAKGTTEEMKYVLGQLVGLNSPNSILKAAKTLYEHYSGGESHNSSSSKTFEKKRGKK
The experiment is described as follows: TTK inhibition assay (indirect ELISA). The class given is biochemical. As to conditions: read-out: TTK IC50 Range.

Experiment [5] relates to ovarian cancer cells (PA-1). Put plainly: Cancer cell line growth inhibition (SRB assay). It is filed as cell-based. The settings on record: Homo sapiens, PA-1; read-out: Cancer Cell Line GI50 Range PA-1.

The structures appear in SMILES notation.

With `CC(C)CC(NC(=O)c1ccc2[nH]nc(-c3ccc(OC4CCN(C5COC5)CC4)cc3)c2c1)c1ccccc1Cl` (stereo not shown) [Example A355, N-(1-(2-chlorophenyl)-3-methylbutyl)-3-(4-((1-(oxetan-3-yl)piperidin-4-yl)oxy)phenyl)-1H-indazole-5-carboxamide], the GI50 in experiment [1], in experiment [3] and in experiment [5] was 0.1 to 0.5 µM throughout. The IC50 is below 0.05 µM in experiment [2] and below 0.1 µM in experiment [4].

In the case of `O=C(N[C@@H](c1ccsc1)C1CCCC1)c1ccc2[nH]nc(-c3ccc(OC4CCN(CCO)CC4)cc3)c2c1` [Example A219, (R)-N-(cyclopentyl(thiophen-3-yl)methyl)-3-(4-((1-(2-hydroxyethyl)piperidin-4-yl)oxy)phenyl)-1H-indazole-5-carboxamide], the GI50 was 0.1 to 0.5 µM in experiment [1], 0.1 to 0.5 µM in experiment [3] and below 0.1 µM in experiment [5]. Moreover, the IC50 is below 0.05 µM in experiment [2] and below 0.1 µM in experiment [4].

In the case of `CC(C)(C)C[C@H](NC(=O)c1ccc2[nH]nc(-c3ccc(N4CCN(C5COC5)CC4)cc3)c2c1)c1ccccc1` [Example A372, (S)-N-(3,3-dimethyl-1-phenylbutyl)-3-(4-(4-(oxctan-3-yl)piperazin-1-yl)phenyl)-1H-indazole-5-carboxamide], the GI50 in experiment [1] was below 0.1 µM; in experiment [3], 0.1 to 0.5 µM; in experiment [5], below 0.1 µM. Besides, the IC50 in experiment [2] was below 0.05 µM; in experiment [4], below 0.1 µM.

Consider `CCC(CC)C(NC(=O)c1ccc2[nH]nc(-c3ccc(O[C@H]4C[C@H]5CC[C@@H](C4)N5C=O)cc3)c2c1)c1ccccn1` (stereo partly drawn) [Example A342, N-(2-ethyl-1-(pyridin-2-yl)butyl)-3-(4-(((1R,3R,5S)-8-formyl-8-azabicyclo[3.2.1]octan-3-yl)oxy)phenyl)-1H-indazole-5-carboxamide], for which the GI50 in experiment [1], in experiment [3] and in experiment [5] was below 0.1 µM in each case. Also, the IC50 in experiment [2] was below 0.05 µM; in experiment [4] it was below 0.1 µM.

On to `CC(C)CC(NC(=O)c1ccc2[nH]nc(-c3ccc(OC4CC5CCC(C4)N5C4COC4)cc3)c2c1)c1ccccn1` [Example A373, N-(3-methyl-1-(pyridin-2-yl)butyl)-3-(4-(((1R,3R,5S)-8-(oxetan-3-yl)-8-azabicyclo[3.2.1]octan-3-yl)oxy)phenyl)-1H-indazole-5-carboxamide], for which the GI50 in experiment [1], in experiment [3] and in experiment [5] was 0.1 to 0.5 µM in each case. In addition, the figures for the IC50 in experiment [2] and in experiment [4] were below 0.05 µM and below 0.1 µM, respectively.

Turning to `O=C(NCC1(c2ccccc2)CCOCC1)c1ccc2[nH]nc(-c3ccc(N4[C@@H]5COC[C@H]4C[C@@H](O)C5)cc3)c2c1` [Example A503, 3-(4-((1R,5S,7S)-7-hydroxy-3-oxa-9-azabicyclo[3.3.1]nonan-9-yl)phenyl)-N-((4-phenyltetrahydro-2H-pyran-4-yl)methyl)-1H-indazole-5-carboxamide], the GI50 is below 0.1 µM in experiment [1], 0.1 to 0.5 µM in experiment [3] and below 0.1 µM in experiment [5]. In addition, the IC50 was below 0.05 µM in experiment [2] and below 0.1 µM in experiment [4].

Consider `CN1[C@@H]2CC[C@H]1C[C@@H](Oc1ccc(-c3n[nH]c4ccc(C(=O)NC(c5ccccc5F)C5CC5)cc34)cc1)C2` (stereo partly drawn) [Example A282, N-(cyclopropyl(2-fluorophenyl)methyl)-3-(4-(((1R,3R,5S)-8-methyl-8-azabicyclo[3.2.1]octan-3-yl)oxy)phenyl)-1H-indazole-5-carboxamide], for which the figures for the GI50 in experiment [1], in experiment [3] and in experiment [5] were below 0.1 µM, 0.1 to 0.5 µM and below 0.1 µM, respectively. In addition, the half-inhibitory concentration (IC50) in experiment [2] is below 0.05 µM; in experiment [4], below 0.1 µM.

Turning to `CC(C)C[C@H](NC(=O)c1ccc2[nH]nc(-c3ccc(N4CCN(C5COC5)CC4)cc3)c2c1)c1ccccc1F` [Example A275, (S)-N-(1-(2-fluorophenyl)-3-methylbutyl)-3-(4-(4-(oxetan-3-yl)piperazin-1-yl)phenyl)-1H-indazole-5-carboxamide], the GI50 in experiment [1], in experiment [3] and in experiment [5] was below 0.1 µM in each case. The IC50 in experiment [2] was below 0.05 µM; in experiment [4], below 0.1 µM.
